The NIST ThermoML archive (doi:10.1021/acs.jced.5b00845)

Experiment: mn = molality of the nth substance listed, in mol/kg
Conditions: 100 kPa, Liquid, Capillary tube (Ostwald / Ubbelohde) method

OC[C@H]1O[C@@](CO)(O[C@H]2O[C@H](CO)[C@@H](O)[C@H](O)[C@H]2O)[C@@H](O[C@H]2O[C@H](CO)[C@@H](O)[C@H](O)[C@H]2O)[C@@H]1O + O
viscosity [mPa·s]
Conditions | m1 = 0.06211 | m1 = 0.07242 | m1 = 0.08043 | m1 = 0.09028 | m1 = 0.1045 | m1 = 0.1256 | m1 = 0.1344 | m1 = 0.1457
288.15 K | 1.237 | 1.253 | 1.266 | 1.281 | 1.303 | 1.335 | 1.348 | 1.365
298.15 K | 0.965 | 0.977 | 0.987 | 0.998 | 1.015 | 1.039 | 1.049 | 1.061
308.15 K | 0.777 | 0.786 | 0.793 | 0.802 | 0.815 | 0.833 | 0.841 | 0.851
318.15 K | 0.642 | 0.65 | 0.655 | 0.663 | 0.673 | 0.687 | 0.694 | 0.701

O=CC[C@H](O)[C@H](O)CO [2-deoxy-D-erythropentose] + O
viscosity [mPa·s]
Conditions | m1 = 0.05709 | m1 = 0.07583 | m1 = 0.09188 | m1 = 0.09812 | m1 = 0.1124 | m1 = 0.1366 | m1 = 0.1466
288.15 K | 1.163 | 1.172 | 1.179 | 1.181 | 1.188 | 1.198 | 1.202
298.15 K | 0.909 | 0.915 | 0.92 | 0.922 | 0.927 | 0.935 | 0.938
308.15 K | 0.734 | 0.738 | 0.742 | 0.744 | 0.747 | 0.753 | 0.755
318.15 K | 0.607 | 0.611 | 0.614 | 0.615 | 0.618 | 0.623 | 0.624

OC[C@H]1OC(O)C[C@@H](O)[C@@H]1O (stereo partly drawn) [2-deoxy-D-glucose] + O
viscosity [mPa·s]
Conditions | m1 = 0.04241 | m1 = 0.05017 | m1 = 0.05842 | m1 = 0.08671 | m1 = 0.09745 | m1 = 0.1223 | m1 = 0.141
288.15 K | 1.16 | 1.164 | 1.168 | 1.182 | 1.188 | 1.2 | 1.21
298.15 K | 0.907 | 0.909 | 0.913 | 0.923 | 0.927 | 0.936 | 0.943
308.15 K | 0.732 | 0.734 | 0.736 | 0.744 | 0.747 | 0.754 | 0.76
318.15 K | 0.606 | 0.608 | 0.609 | 0.616 | 0.618 | 0.624 | 0.628

O=C[C@H](O)[C@@H](O)[C@H](O[C@@H]1O[C@H](CO)[C@H](O)[C@H](O)[C@H]1O)[C@H](O)CO [4-O-β-D-galactopyranosyl-D-glucose] + O
viscosity [mPa·s]
Conditions | m1 = 0.04915 | m1 = 0.0521 | m1 = 0.06429 | m1 = 0.07299 | m1 = 0.09149 | m1 = 0.1001 | m1 = 0.1211 | m1 = 0.1528
288.15 K | 1.198 | 1.202 | 1.216 | 1.227 | 1.249 | 1.259 | 1.284 | 1.321
298.15 K | 0.936 | 0.938 | 0.949 | 0.957 | 0.974 | 0.982 | 1 | 1.028
308.15 K | 0.755 | 0.757 | 0.766 | 0.772 | 0.785 | 0.791 | 0.806 | 0.828
318.15 K | 0.625 | 0.626 | 0.633 | 0.638 | 0.649 | 0.654 | 0.665 | 0.683

C[C@@H]1O[C@@H](O)[C@H](O)[C@H](O)[C@H]1O [6-deoxy-α-L-mannopyranose] + O
viscosity [mPa·s]
Conditions | m1 = 0.04655 | m1 = 0.05637 | m1 = 0.08317 | m1 = 0.0856 | m1 = 0.1109 | m1 = 0.1248 | m1 = 0.1471
288.15 K | 1.165 | 1.171 | 1.186 | 1.187 | 1.202 | 1.21 | 1.222
298.15 K | 0.91 | 0.914 | 0.925 | 0.926 | 0.937 | 0.943 | 0.952
308.15 K | 0.734 | 0.737 | 0.746 | 0.747 | 0.755 | 0.759 | 0.766
318.15 K | 0.608 | 0.61 | 0.617 | 0.618 | 0.623 | 0.627 | 0.632
